Measurements: ChEMBL document CHEMBL5357031, “Design and Synthesis of Cytotoxic Water-Soluble Rocaglaol Derivatives against HEL Cells by Inhibiting Fli-1” (J Nat Prod, 2024)
pIC50: −log10 of the molar value.

Experiments:
[1] = test system: HEL; test: Induction of cell cycle arrest in HEL cells assessed as cell accumulation at S phase at 0.1 uM incubated for 48 hrs by […] (reference value: 33.66 %); format: functional, Homo sapiens
[2] = test system: HEL; test: Induction of apoptosis in HEL cells assessed as necrotic cells at 0.4 uM incubated for 48 hrs by Annexin V/PI staining based flow cytometry (reference value: 0.92 %); format: functional, Homo sapiens
[3] = test system: HEL; test: Induction of cell cycle arrest in HEL cells assessed as cell accumulation at G2/M phase at 0.1 uM incubated for 24 hrs by […] (reference value: 16.18 %); format: functional, Homo sapiens
[4] = test system: HEL; test: Induction of apoptosis in HEL cells assessed as early apoptotic cells at 0.2 uM incubated for 24 hrs by Annexin V/PI staining based flow cytometry (reference value: 1.47 %); format: functional, Homo sapiens
[5] = test system: HEL; test: Induction of cell cycle arrest in HEL cells assessed as cell accumulation at G2/M phase at 0.2 uM incubated for 24 hrs by […] (reference value: 16.18 %); format: functional, Homo sapiens
[6] = test system: HEL; test: Induction of apoptosis in HEL cells assessed as late apoptotic cells at 0.2 uM incubated for 48 hrs by Annexin V/PI staining based flow cytometry (reference value: 1.83 %); format: functional, Homo sapiens
[7] = test system: HEL; test: Induction of apoptosis in HEL cells assessed as late apoptotic cells at 0.1 uM incubated for 48 hrs by Annexin V/PI staining based flow cytometry (reference value: 1.83 %); format: functional, Homo sapiens
[8] = test system: HEL; test: Induction of cell cycle arrest in HEL cells assessed as cell accumulation at S phase at 0.4 uM incubated for 48 hrs by […] (reference value: 33.66 %); format: functional, Homo sapiens
[9] = test system: HEL; test: Induction of apoptosis in HEL cells assessed as late apoptotic cells at 0.4 uM incubated for 48 hrs by Annexin V/PI staining based flow cytometry (reference value: 1.83 %); format: functional, Homo sapiens
[10] = test system: HEL; test: Induction of apoptosis in HEL cells assessed as late apoptotic cells at 0.4 uM incubated for 24 hrs by Annexin V/PI staining based flow cytometry (reference value: 1.98 %); format: functional, Homo sapiens
[11] = test system: HEL; test: Induction of apoptosis in HEL cells assessed as early apoptotic cells at 0.1 uM incubated for 48 hrs by Annexin V/PI staining based flow cytometry (reference value: 1.62 %); format: functional, Homo sapiens
[12] = test system: HEL; test: Induction of apoptosis in HEL cells assessed as viable cells at 0.1 uM incubated for 24 hrs by Annexin V/PI staining based flow cytometry (reference value: 94.94 %); format: functional; conditions: Homo sapiens, read-out: Activity
[13] = test system: HEL; test: Induction of apoptosis in HEL cells assessed as early apoptotic cells at 0.1 uM incubated for 24 hrs by Annexin V/PI staining based flow cytometry (reference value: 1.47 %); format: functional, Homo sapiens
[14] = test system: HEL; test: Induction of cell cycle arrest in HEL cells assessed as cell accumulation at S phase at 0.1 uM incubated for 24 hrs by […] (reference value: 16.18 %); format: functional, Homo sapiens
[15] = test system: HEL; test: Induction of apoptosis in HEL cells assessed as viable cells at 0.4 uM incubated for 48 hrs by Annexin V/PI staining based flow cytometry (reference value: 95.63 %); format: functional; conditions: Homo sapiens, read-out: Activity
[16] = test system: HEL; test: Induction of apoptosis in HEL cells assessed as late apoptotic cells at 0.1 uM incubated for 24 hrs by Annexin V/PI staining based flow cytometry (reference value: 1.98 %); format: functional, Homo sapiens
[17] = test system: HEL; test: Induction of cell cycle arrest in HEL cells assessed as cell accumulation at S phase at 0.2 uM incubated for 48 hrs by […] (reference value: 33.66 %); format: functional, Homo sapiens
[18] = test system: HEL; test: Induction of apoptosis in HEL cells assessed as early apoptotic cells at 0.2 uM incubated for 48 hrs by Annexin V/PI staining based flow cytometry (reference value: 1.62 %); format: functional, Homo sapiens
[19] = test system: HEL; test: Induction of cell cycle arrest in HEL cells assessed as cell accumulation at G2/M phase at 0.4 uM incubated for 48 hrs by […] (reference value: 20.36 %); format: functional, Homo sapiens
[20] = Solubility of compound in PBS at pH 7.4 at 1.7 mg measured for 24 hrs by HPLC-UV analysis; format: physicochemical
[21] = test system: HEL; test: Induction of apoptosis in HEL cells assessed as early apoptotic cells at 0.4 uM incubated for 48 hrs by Annexin V/PI staining based flow cytometry (reference value: 1.62 %); format: functional, Homo sapiens
[22] = test system: HEL; test: Induction of apoptosis in HEL cells assessed as necrotic cells at 0.2 uM incubated for 24 hrs by Annexin V/PI staining based flow cytometry (reference value: 1.61 %); format: functional, Homo sapiens
[23] = test system: HEL; test: Induction of apoptosis in HEL cells assessed as necrotic cells at 0.2 uM incubated for 48 hrs by Annexin V/PI staining based flow cytometry (reference value: 0.92 %); format: functional, Homo sapiens
[24] = test system: HEL; test: Induction of cell cycle arrest in HEL cells assessed as cell accumulation at G1 phase at 0.1 uM incubated for 24 hrs by […] (reference value: 39.11 %); format: functional, Homo sapiens
[25] = test system: HEL; test: Cytotoxicity against HEL cells assessed as cell growth inhibition incubated for 72 hrs by MTT assay; format: functional, cell-based, Homo sapiens; conditions: hel
[26] = test system: HEL; test: Induction of cell cycle arrest in HEL cells assessed as cell accumulation at S phase at 0.4 uM incubated for 24 hrs by […] (reference value: 16.18 %); format: functional, Homo sapiens
[27] = test system: HEL; test: Induction of apoptosis in HEL cells assessed as viable cells at 0.4 uM incubated for 24 hrs by Annexin V/PI staining based flow cytometry (reference value: 94.94 %); format: functional; conditions: Homo sapiens, read-out: Activity
[28] = test system: HEL; test: Induction of cell cycle arrest in HEL cells assessed as cell accumulation at G1 phase at 0.2 uM incubated for 24 hrs by Western blot analysis (reference value: 39.11 %); format: functional, Homo sapiens
[29] = test system: HEL; test: Induction of apoptosis in HEL cells assessed as late apoptotic cells at 0.2 uM incubated for 24 hrs by Annexin V/PI staining based flow cytometry (reference value: 1.98 %); format: functional, Homo sapiens
[30] = test system: HEL; test: Induction of cell cycle arrest in HEL cells assessed as cell accumulation at G1 phase at 0.4 uM incubated for 24 hrs by […] (reference value: 39.11 %); format: functional, Homo sapiens
[31] = test system: HEL; test: Induction of cell cycle arrest in HEL cells assessed as cell accumulation at G1 phase at 0.1 uM incubated for 48 hrs by […] (reference value: 54.17 %); format: functional, Homo sapiens
[32] = test system: HEL; test: Induction of cell cycle arrest in HEL cells assessed as cell accumulation at G2/M phase at 0.1 uM incubated for 48 hrs by […] (reference value: 20.36 %); format: functional, Homo sapiens
[33] = test system: MDA-MB-231
Description: Cytotoxicity against human MDA-MB-231 cells assessed as cell growth inhibition incubated for 72 hrs by MTT assay

[34] = test system: HEL; test: Induction of cell cycle arrest in HEL cells assessed as cell accumulation at G2/M phase at 0.2 uM incubated for 48 hrs by […] (reference value: 20.36 %); format: functional, Homo sapiens
[35] = test system: HEL; test: Induction of cell cycle arrest in HEL cells assessed as cell accumulation at G2/M phase at 0.4 uM incubated for 24 hrs by […] (reference value: 16.18 %); format: functional, Homo sapiens
[36] = test system: HEL; test: Induction of apoptosis in HEL cells assessed as necrotic cells at 0.4 uM incubated for 24 hrs by Annexin V/PI staining based flow cytometry (reference value: 1.61 %); format: functional, Homo sapiens
[37] = test system: HEL; test: Induction of cell cycle arrest in HEL cells assessed as cell accumulation at S phase at 0.2 uM incubated for 24 hrs by […] (reference value: 16.18 %); format: functional, Homo sapiens
[38] = test system: HEL; test: Induction of apoptosis in HEL cells assessed as viable cells at 0.2 uM incubated for 48 hrs by Annexin V/PI staining based flow cytometry (reference value: 95.63 %); format: functional; conditions: Homo sapiens, read-out: Activity
[39] = test system: HEL; test: Induction of apoptosis in HEL cells assessed as viable cells at 0.2 uM incubated for 24 hrs by Annexin V/PI staining based flow cytometry (reference value: 94.94 %); format: functional; conditions: Homo sapiens, read-out: Activity
[40] = test system: HEL; test: Induction of cell cycle arrest in HEL cells assessed as cell accumulation at G1 phase at 0.2 uM incubated for 48 hrs by […] (reference value: 54.17 %); format: functional, Homo sapiens
[41] = test system: HEL; test: Induction of apoptosis in HEL cells assessed as necrotic cells at 0.1 uM incubated for 48 hrs by Annexin V/PI staining based flow cytometry (reference value: 0.92 %); format: functional, Homo sapiens
[42] = test system: HEL; test: Induction of cell cycle arrest in HEL cells assessed as cell accumulation at G1 phase at 0.4 uM incubated for 48 hrs by […] (reference value: 54.17 %); format: functional, Homo sapiens
[43] = test system: HEL; test: Induction of apoptosis in HEL cells assessed as viable cells at 0.1 uM incubated for 48 hrs by Annexin V/PI staining based flow cytometry (reference value: 95.63 %); format: functional; conditions: Homo sapiens, read-out: Activity
[44] = test system: SW480; test: Cytotoxicity against human SW480 cells assessed as cell growth inhibition incubated for 72 hrs by MTT assay; format: functional, cell-based; conditions: sw480
[45] = test system: HEL; test: Induction of apoptosis in HEL cells assessed as early apoptotic cells at 0.4 uM incubated for 24 hrs by Annexin V/PI staining based flow cytometry (reference value: 1.47 %); format: functional, Homo sapiens
[46] = test system: HEL; test: Induction of apoptosis in HEL cells assessed as necrotic cells at 0.1 uM incubated for 24 hrs by Annexin V/PI staining based flow cytometry (reference value: 1.61 %); format: functional, Homo sapiens

With COc1cc(OC)c2c(c1)O[C@@]1(c3ccc(OCCCCCN4CCN(C)CC4)cc3)[C@H](c3ccccc3)C[C@@H](O)[C@@]21O.O=C(O)/C=C/C(=O)O (racemic; form 2) as the compound, how does the Activity [1] read?
Its Activity is 30.25%.

And the Activity [2]?
Its Activity is 2.21%.

What about the Activity [3] of the same compound?
Its Activity is 21.09%.

And the Activity [4]?
Its Activity is 1.5%.

And the Activity [5]?
The Activity was 20.55%.

What about the Activity [6] of the same compound?
The Activity was 7.65%.

And the Activity [7]?
Its Activity is 3.54%.

And the Activity [8]?
Its Activity is 19.87%.

And the Activity [9]?
Its Activity is 10.08%.

What about the Activity [10] of the same compound?
Its Activity is 2.1%.

What about the Activity [11] of the same compound?
The Activity was 3.45%.

And the viability at 0.1 µM [12]?
Its viability at 0.1 µM is 94.7%.

What about the Activity [13] of the same compound?
The Activity was 1.34%.

And the Activity [14]?
Its Activity is 39.19%.

What about the viability at 0.4 µM [15] of the same compound?
Its viability at 0.4 µM is 68.9%.

What about the Activity [16] of the same compound?
Its Activity is 2.02%.

And the Activity [17]?
The Activity was 19.87%.

What about the Activity [18] of the same compound?
The Activity was 6.37%.

And the Activity [19]?
The Activity was 8.35%.

What about the solubility at 24 h [20] of the same compound?
The solubility at 24 h was 12.5 mg/mL.

And the Activity [21]?
The Activity was 18.85%.

What about the Activity [22] of the same compound?
Its Activity is 1.68%.

What about the Activity [23] of the same compound?
Its Activity is 3.11%.

And the Activity [24]?
The Activity was 39.54%.

What about the pIC50 [25] of the same compound?
Its pIC50 is 6.72.

And the Activity [26]?
Its Activity is 27.85%.

What about the viability at 0.4 µM [27] of the same compound?
The viability at 0.4 µM was 94.6%.

And the Activity [28]?
Its Activity is 50.73%.

What about the Activity [29] of the same compound?
Its Activity is 1.66%.

What about the Activity [30] of the same compound?
Its Activity is 54.17%.

What about the Activity [31] of the same compound?
The Activity was 43.16%.

And the Activity [32]?
Its Activity is 25.52%.

And the pIC50 [33]?
Its pIC50 is less than 6.00.

What about the Activity [34] of the same compound?
The Activity was 15.61%.

What about the Activity [35] of the same compound?
Its Activity is 18.31%.

And the Activity [36]?
Its Activity is 1.12%.

And the Activity [37]?
Its Activity is 27.85%.

What about the viability at 0.2 µM [38] of the same compound?
Its viability at 0.2 µM is 82.9%.

And the viability at 0.2 µM [39]?
The viability at 0.2 µM was 95.2%.

And the Activity [40]?
Its Activity is 62.59%.

What about the Activity [41] of the same compound?
Its Activity is 1.02%.

What about the Activity [42] of the same compound?
Its Activity is 66.15%.

What about the viability at 0.1 µM [43] of the same compound?
Its viability at 0.1 µM is 92%.

What about the pIC50 [44] of the same compound?
Its pIC50 is less than 6.00.

What about the Activity [45] of the same compound?
Its Activity is 2.17%.

What about the Activity [46] of the same compound?
The Activity was 1.96%.
